Test results: patent US10189786B2, “Antibacterial compounds” (Duke University, priority 2013, dated 2019)
Values after ≈ are worked out from the molar mass of the structure shown.

Legend:
[1] = test system: F. novicida U112 (FNU112); experiment: microbe, parasite or virus in culture; type: cell-based; conditions: Francisella tularensis, read-out: MIC FNU112
P. aeruginosa PAO1 = experiment: MIC assay, P. aeruginosa PAO1; type: cell-based; conditions: for MIC: Pseudomonas aeruginosa; for MIC P. aeruginosa PAO1: unit from b306
E. coli W3110NG = experiment: MIC assay, E. coli W3110NG; type: cell-based; conditions: Escherichia coli
E. coli W3110PA = experiment: microbe, parasite or virus in culture; type: cell-based; conditions: E. coli with native lpxC replaced by that of P. aeruginosa; for MIC: Escherichia coli, W3110PA; for MIC E. coli W3110PA: unit from b306
E. coli W3110 = experiment: microbe, parasite or virus in culture; type: cell-based; conditions: wild-type E. coli W3110, 22 hours at 37° C., MTT; for MIC: Escherichia coli, W3110, 22 h
[2] = test system: N. gonorrhoeae 35/02 (drug-resistant strain); experiment: Disk diffusion assay, N. gonorrhoeae 35/02; type: cell-based; conditions: disc 6 mm; for zone of inhibition at 0.2 µg/disc / zone of inhibition at 2 µg/disc / zone of inhibition at 20 µg/disc: Neisseria gonorrhoeae, read-out: diameter of the growth inhibition, 35/02; for zone of inhibition at 0.2 µg/disc: 0.2 μg per disc
Experimental: (§1) An assay was performed on two strains of Acinetobacter Baumannii: antibiotic susceptible strain (Sus. A.b. Isolate), and multidrug-resistant strains (MDR A.b. Isolate). […] Activity is measured as the diameter (in mm) of the growth inhibition.

N. gonorrhoeae H041 = experiment: Disk diffusion assay, N. gonorrhoeae H041; type: cell-based; conditions: disc 6 mm; for zone of inhibition at 0.2 µg/disc / zone of inhibition at 2 µg/disc / zone of inhibition at 20 µg/disc: Neisseria gonorrhoeae, read-out: diameter of the growth inhibition, H041; for zone of inhibition at 0.2 µg/disc: H041, 0.2 μg per disc; for zone of inhibition at 2 µg/disc: H041, 2.0 μg per disc; for zone of inhibition at 20 µg/disc: H041, 20 μg per disc
Experimental: as §1

[3] = test system: N. gonorrhoeae FA19 (a drug-sensitive strain); experiment: Disk diffusion assay, N. gonorrhoeae FA19; type: cell-based; conditions: disc 6 mm; for zone of inhibition at 0.2 µg/disc / zone of inhibition at 2 µg/disc / zone of inhibition at 20 µg/disc: Neisseria gonorrhoeae, read-out: diameter of the growth inhibition, FA19
Experimental: as §1

[4] = test system: N. gonorrhoeae F89 (high-level cefixime and ceftriaxone resistance); experiment: Disk diffusion assay, N. gonorrhoeae F89; type: cell-based; conditions: disc 6 mm; for zone of inhibition at 0.2 µg/disc / zone of inhibition at 2 µg/disc / zone of inhibition at 20 µg/disc: Neisseria gonorrhoeae, read-out: diameter of the growth inhibition, F89
Experimental: as §1

N. gonorrhoeae (FA35/02) [5] = conditions: description of the resistance of strain 35/02; cited from earlier work
N. gonorrhoeae (FA35/02) [6] = experiment: MIC assay, N. gonorrhoeae 35/02; type: cell-based; conditions: drug-resistant strain; for MIC: Neisseria gonorrhoeae
Experimental: MICs are determined according to the NCCLS protocol using 96-well plates. Briefly, diluted bacterial cells (10^6 cells/mL) are added into each well of the 96-well plates containing LB medium with 5% DMSO and various concentrations of the compound of disclosure. After incubation of the plates for 22 hours at 37° C., [4,5-dimethylthiazol-2-yl]-2,5-diphenyltetrazolium bromide solution (MTT) is added (final concentration, 0.2 mg/mL) and incubated at 37° C. for another 3 hrs. MIC is determined as the lowest concentration of an antibiotic that prevented color change (yellow to purple).
The antibiotic activities of several exemplary compounds useful in the methods of the disclosure are evaluated by measurements of minimum inhibitory concentrations (MICs) using two N. gonorrhoeae strains: FA19 (a drug-sensitive strain) and 35/02 (drug-resistant strain.) FA19 is an isolate from uncomplicated infection and was lyophilized in 1962. […] The strain is being sequenced to elucidate the mechanisms involved in high-level chromosomally mediated resistance.

[7] = 0.2 μg per disc, listed as 3 (Isomer B)

| Molecule | MIC (P. aeruginosa PAO1; PAO1, P. aeruginosa PAO1) | MIC (E. coli W3110PA) | MIC (E. coli W3110) | zone of inhibition at 0.2 µg/disc [2] | zone of inhibition at 2 µg/disc ([2]; 2.0 μg per disc) | zone of inhibition at 20 µg/disc ([2]; 20 μg per disc) | zone of inhibition at 0.2 µg/disc (N. gonorrhoeae H041) | zone of inhibition at 2 µg/disc (N. gonorrhoeae H041) | zone of inhibition at 20 µg/disc (N. gonorrhoeae H041) | zone of inhibition at 0.2 µg/disc ([3]; 0.2 μg per disc) | zone of inhibition at 2 µg/disc ([3]; 2.0 μg per disc) | zone of inhibition at 20 µg/disc ([3]; 20 μg per disc) | zone of inhibition at 0.2 µg/disc ([4]; 0.2 μg per disc) | zone of inhibition at 2 µg/disc ([4]; 2.0 μg per disc) | zone of inhibition at 20 µg/disc ([4]; 20 μg per disc) | also measured |
| --- | --- | --- | --- | --- | --- | --- | --- | --- | --- | --- | --- | --- | --- | --- | --- | --- |
| C[C@@H](O)[C@H](NCc1ccc(-c2ccccc2)cc1)C(=O)NO [Example 9, (2S,3R)-2-(biphenyl-4-ylmethylamino)-N,3-dihydroxybutanamide] | 5.4 µg/mL (≈ 18 µM) | 4.8 µg/mL (≈ 16 µM) | 25 µg/mL (≈ 83.2 µM) | – | – | – | – | – | – | – | – | – | – | – | – | MIC [1]: > 5 µg/mL; MIC (E. coli W3110NG): > 50 µg/mL |
| CC(C)(O)C(C)(CCc1ccc(-c2ccccc2)cc1)C(=O)NO (stereo not drawn) [Example 2, 2-(2-(biphenyl-4-yl)ethyl)-N,3-dihydroxy-2,3-dimethylbutanamide] | 25 µg/mL (≈ 76.4 µM) | 25 µg/mL (≈ 76.4 µM) | > 50 µg/mL | – | – | – | – | – | – | – | – | – | – | – | – | – |
| C[C@@](O)(C(F)F)[C@H](NCc1ccc(-c2ccccc2)cc1)C(=O)NO [Example 5, (2S,3S)-2-(biphenyl-4-ylmethylamino)-4,4-difluoro-N,3-dihydroxy-3-methylbutanamide] | 3.1 µg/mL (≈ 8.85 µM) | 3.1 µg/mL (≈ 8.85 µM) | 25 µg/mL (≈ 71.4 µM) | 0 mm | 16 mm | 24 mm | 7 mm | 17 mm | 25 mm | 0 mm | 25 mm | 29 mm | 8 mm | 27 mm | 36 mm | – |
| CC(CCn1ccc(-c2ccc(-n3nccn3)cc2)cc1=O)(C(=O)NO)C(C)(O)C(F)F (stereo not drawn) [Example 4, 2-(2-(4-(4-(2H-1,2,3-triazol-2-yl)phenyl)-2-oxopyridin-1 (2H)-yl)ethyl)-4,4-difluoro-N,3-dihydroxy-2,3-dimethylbutanamide] | – | 3.13 µg/mL (≈ 7 µM) | 3.12 µg/mL (≈ 6.97 µM) | 0 mm | 11 mm | 16 mm | 7 mm | 10 mm | 16 mm | 0 mm | 8 mm | 19 mm | 7 mm | 15 mm | 26 mm | – |
| CC(NCc1ccc(-c2ccccc2)cc1)(C(=O)NO)C(C)(O)C(F)F (stereo not drawn) [Example 6, 2-(biphenyl-4-ylmethylamino)-4,4-difluoro-N,3-dihydroxy-2,3-dimethylbutanamide] | – | 12.5 µg/mL (≈ 34.3 µM) | > 50 µg/mL | – | – | – | – | – | – | – | 22 mm | – | – | – | – | MIC (P. aeruginosa PAO1; P. aeruginosa PAO1): 12.5 µg/mL (≈ 34.3 µM) |
| CC(CCc1ccc(-c2ccccc2)cc1)(C(=O)NO)C(C)(O)C(F)F (single isomer, unassigned) [Example 3 Isomer A, 2-(2-(biphenyl-4-yl)ethyl)-4,4-difluoro-N,3-dihydroxy-2,3-dimethylbutanamide] | – | – | 50 µg/mL (≈ 138 µM) | 0 mm | 13 mm | 19 mm | 9 mm | 16 mm | 24 mm | – | 20 mm | 30 mm | 18 mm | 27 mm | 33 mm | MIC P. aeruginosa PAO1 (P. aeruginosa PAO1; P. aeruginosa PAO1, listed as 3 Isomer A): 6.3 µg/mL (≈ 17.3 µM); diameter of the growth inhibition, FA19 ([3]; 0.2 μg per disc, listed as 3 (Isomer A)): 11 mm; MIC E. coli W3110PA (E. coli W3110PA; listed as 3 Isomer A): 3.1 µg/mL (≈ 8.53 µM) |
| CO/N=C(\C(=O)N[C@@H]1C(=O)N2C(C(=O)O)=C(CSc3nc(=O)c(=O)[nH]n3C)CS[C@H]12)c1csc(N)n1 [ceftriaxone] | – | – | – | – | – | – | – | – | – | – | – | – | – | – | – | MIC of reference antibiotics against N. gonorrhoeae 35/02 (N. gonorrhoeae (FA35/02) [5]): 0.12 µg/mL |
| C[C@@](O)(C(F)F)[C@H](NCCCc1ccc(-c2ccccc2)cc1)C(=O)NO [Example 11, (2S,3S)-2-(3-(biphenyl-4-yl)propylamino)-4,4-difluoro-N,3-dihydroxy-3-methylbutanamide] | 2.5 µg/mL (≈ 6.61 µM) | 1.25 µg/mL (≈ 3.3 µM) | 1.25 µg/mL (≈ 3.3 µM) | 14 mm | 23 mm | 26 mm | 11 mm | 20 mm | 27 mm | 18 mm | 25 mm | 30 mm | 19 mm | 26 mm | 33 mm | MIC (N. gonorrhoeae (FA35/02) [6]): 0.03 to 0.06 µg/mL (≈ 0.0793 to 0.159 µM); MIC N. gonorrhoeae (FA35/02) (N. gonorrhoeae (FA35/02) [6]): 0.03 µg/mL (≈ 0.0793 µM) |
| CC(CCc1ccc(-c2ccccc2)cc1)(C(=O)NO)S(C)(=O)=O (stereo not drawn) [Example 133] | 0.39 µg/mL (≈ 1.12 µM) | 0.38 µg/mL (≈ 1.09 µM) | 3.13 µg/mL (≈ 9.01 µM) | – | – | – | – | – | – | – | – | – | – | – | – | MIC [1]: 3.13 µg/mL (≈ 9.01 µM) |
| penicillin | – | – | – | – | – | – | – | – | – | – | – | – | – | – | – | MIC of reference antibiotics against N. gonorrhoeae 35/02 (N. gonorrhoeae (FA35/02) [5]): 6 µg/mL |
| CC(NCCCc1ccc(-c2ccccc2)cc1)(C(=O)NO)C(C)(O)C(F)F (stereo not drawn) [Example 10, 2-(3-(biphenyl-4-yl)propylamino)-4,4-difluoro-N,3-dihydroxy-2,3-dimethylbutanamide] | 2.5 µg/mL (≈ 6.37 µM) | – | 61.2 µg/mL (≈ 156 µM) | 15 mm | 20 mm | 27 mm | 13 mm | 20 mm | 27 mm | 17 mm | 25 to 27 mm | 30 mm | 20 mm | 28 mm | 35 mm | MIC (N. gonorrhoeae (FA35/02) [6]): 0.06 µg/mL (≈ 0.153 µM) |
| C[C@@](O)(C(F)F)[C@H](NC(=O)CCc1ccc(-c2ccccc2)cc1)C(=O)NO [Example 14, (2S,3S)-2-(3-(biphenyl-4-yl)propanamido)-4,4-difluoro-N,3-dihydroxy-3-methylbutanamide] | – | 12.5 µg/mL (≈ 31.9 µM) | 6.25 µg/mL (≈ 15.9 µM) | 14 mm | 22 mm | 28 mm | 7 mm | 20 mm | 26 mm | 18 mm | 27 mm | 30 mm | 18 mm | 27 mm | 34 mm | MIC [1]: 12.5 µg/mL (≈ 31.9 µM); MIC (N. gonorrhoeae (FA35/02) [6]): 0.25 µg/mL (≈ 0.637 µM) |
| COc1ccc(-c2ccn(CCC(C)(C(=O)NO)S(C)(=O)=O)c(=O)c2)cc1 (stereo not drawn) [Example 13, N-hydroxy-4-(4-(4-methoxyphenyl)-2-oxopyridin-1 (2H)-yl)-2-methyl-2-(methylsulfonyl)butanamide] | < 0.78 µg/mL | < 0.78 µg/mL | < 0.78 µg/mL | – | – | – | – | – | – | – | – | – | – | – | – | MIC [1]: 1.25 µg/mL (≈ 3.17 µM); MIC (E. coli W3110NG): 1.25 µg/mL (≈ 3.17 µM) |
| CC(CCc1ccc(-c2ccccc2)cc1)(C(=O)NO)C(C)(O)C(F)F (single isomer, unassigned) [Example 3 Isomer B, 2-(2-(biphenyl-4-yl)ethyl)-4,4-difluoro-N,3-dihydroxy-2,3-dimethylbutanamide] | – | – | – | – | – | – | – | – | – | – | – | – | – | – | – | diameter of the growth inhibition, 35/02 ([2]; 2.0 μg per disc): 8 mm; diameter of the growth inhibition, 35/02 ([2]; 20 μg per disc): 19 mm; diameter of the growth inhibition, H041 (N. gonorrhoeae H041; [7]): 8 mm; diameter of the growth inhibition, H041 (N. gonorrhoeae H041; 2.0 μg per disc): 10 mm; diameter of the growth inhibition, H041 (N. gonorrhoeae H041; 20 μg per disc): 20 mm; MIC P. aeruginosa PAO1 (P. aeruginosa PAO1; P. aeruginosa PAO1, listed as 3 Isomer B): 25 µg/mL (≈ 68.8 µM); diameter of the growth inhibition, FA19 [3, 7]: 0 mm; diameter of the growth inhibition, FA19 ([3]; 2.0 μg per disc): 15 mm; diameter of the growth inhibition, FA19 ([3]; 20 μg per disc): 23 mm; diameter of the growth inhibition, F89 [4, 7]: 10 mm; diameter of the growth inhibition, F89 ([4]; 2.0 μg per disc): 20 mm; diameter of the growth inhibition, F89 ([4]; 20 μg per disc): 27 mm; MIC E. coli W3110PA (E. coli W3110PA; listed as 3 Isomer B): 25 µg/mL (≈ 68.8 µM); MIC E. coli W3110 (E. coli W3110): >50 µg/mL |
